What was measured:
[1] = test system: androgen-stimulated hair growth of flank organs; assay: Golden Syrian hamster assay (flank organ hair mass); format: in vivo; settings: topical, 10% dose, thirteen applications, vehicle A, B or C per compound; for Left(mg) (hair mass of the compound-treated flank organ): 10 μl once a day
Source text: Male intact Golden Syrian hamsters are considered acceptable models for human beard hair growth and other androgen-stimulated hair growth in that they display oval shaped flank organs, one on each side, each about 8 mm. in major diameter, which grow thick black and coarse hair similar to human beard hair. These organs produce hair in response to androgens in the hamster. To evaluate the effectiveness of a composition in reducing androgen-stimulated hair growth, the flank organs of each of a group of hamsters are shaved. To one organ of each animal 10 μl. of composition vehicle alone once a day is applied, while to the other organ of each animal an equal amount of the composition (including the relevant compound or compounds). After thirteen applications (one application per day for five days a week), the flank organs are shaved and the amount of recovered hair (hair mass) from each is weighed. Percent-reduction of hair growth is calculated by subtracting the hair mass (mg) value of the test compound treated side from the hair mass value of the vehicle treated side; the delta value obtained is then divided by the hair mass value of the vehicle treated side, and the resultant number is multiplied by 100.
The above-described assay will be referred to herein as the "Golden Syrian hamster" assay. Preferred compositions provide a reduction in hair growth of at least about 30%, more preferably at least about 50%, and most preferably at least about 60% when tested in the Golden Syrian hamster assay.
A number of compositions containing compounds that induce or activate UGTs for which testosterone is a substrate were tested in the Golden Syrian hamster assay; the results are provided in Table I: […]

[2] = test system: glucuronidation of testosterone (UGTs); assay: Induction of testosterone glucuronide formation in flank organ homogenates; format: biochemical, Golden Syrian hamster; settings: flank organ protein, [14C]-testosterone 125 μM, UDP-glucuronic acid 5 mM, 37° C., 60 minutes
Protocol: An assay was performed to evaluate whether some of the compounds tested in the Golden Syrian Hamster assay caused an induction of testosterone glucuronide formation.
Flank organ homogenates were prepared by adding 4 flank organs into 2 mL of a buffer containing 25 mM Tris/50 mM sucrose, pH 7.4 and homogenized with a Polytron (Brinkman Instruments) while keeping the mixture on ice. The glucuronidation of testosterone was measured by incubating the 20 μl of the flank organ protein (1 mg/ml) with [^14 C]-testosterone testosterone 125 μM and UDP-glucuronic acid (5 mM) in the presence of buffer containing 0.5M Tris, pH 7.5 and 0.1M MgCl2. The total reaction mixture volume was 100 μl. Assay mixtures were incubated at 37° C. for 60 minutes, and reactions were stopped with the addition of 3.5 ml methylene chloride. An aqueous carrier (250 μl water) was added to each reaction mixture which was then shaken and centrifuged. The unmetabolized [^14 C]-testosterone remained in the organic phase whereas the testosterone glucuronide partitioned into the aqueous phase, and was quantitated by scintillation spectrometry.

flank organs = assay: Flank organ diameter by caliper after topical treatment; format: in vivo, Golden Syrian hamster; settings: for effect on flank organ diameter (in words): topical application; for % Decrease (flank organ diameter) / Decrease (mm) (flank organ diameter, treated vs vehicle) / Treated FO (mm) (flank organ diameter): topical treatment as in the hair mass assay
Protocol: It was believed that the diversion of testosterone away from its biologically active species to a glucuronide or sulfonate conjugate would have effects on the flank organs of the Golden Syrian hamster since testosterone is known to regulate the existence of these unique organs. The diameter of flank organs were assessed using a caliper following topical treatment of the hamsters with ethoxyquin or 5,7-dihydroxy-4'-methoxyflavone as described in the hair mass assay section.

Compound | Left(mg) (hair mass of the compound-treated flank organ) [1] | % Inhibition (percent reduction of hair growth vs vehicle-treated side) [1] [%] | % Induction (testosterone glucuronide formation) [2] [%] | effect on flank organ diameter (in words) (flank organs) | % Decrease (flank organ diameter) (flank organs) [%] | Decrease (mm) (flank organ diameter, treated vs vehicle) (flank organs) | Treated FO (mm) (flank organ diameter) (flank organs)
O=C1CC(c2ccccc2)Oc2ccccc21 (centres unmarked) [flavanone] | 1.91 ± .22 mg | 17 ± 10 | – | – | – | – | –
CCOc1ccc2c(c1)C(C)=CC(C)(C)N2 [ethoxyquin] | 0.55 ± .16 mg | 75 ± 7 | 214 | decrease in flank organ diameter | 19 ± 4 | 1.65 ± .37 mm | 7.18 ± .26 mm
O=C1C[C@@H](c2ccc(O)cc2)Oc2cc(O)cc(O)c21 [naringenin] | 1.42 ± .18 mg | 40 ± 8 | – | – | – | – | –
Cc1cc(C(C)(C)C)c(O)c(C(C)(C)C)c1 [butylhydroxytoluene] | 1.74 ± .38 mg | 22 ± 18 | – | – | – | – | –
CCC1(c2ccccc2)C(=O)NC(=O)NC1=O [phenobarbital, reference compound] | 0.89 ± .16 mg | 51 ± 11 | 113 | – | – | – | –
COc1ccc(-c2cc(=O)c3c(O)cc(O)cc3o2)cc1 [5,7-dihydroxy-4'-methoxyflavone] | 1.00 ± .22 mg | 62 ± 9 | 120 | decrease in flank organ diameter | 12 ± 5 | 1.04 ± .46 mm | 8.04 ± .29 mm
COc1ccc(O)c(C(C)(C)C)c1 [butylhydroxyanisole] | 0.92 ± .24 mg | 61 ± 9 | 178 | – | – | – | –
